Experimental data from ChEMBL document CHEMBL3797029, “Purinylpyridinylamino-based DFG-in/αC-helix-out B-Raf inhibitors: Applying mutant versus wild-type B-Raf selectivity indices for compound profiling” (Bioorg Med Chem, 2016).

Tests used:
[1] = molecular target: 5'-AMP-activated protein kinase catalytic subunit alpha-1 (Homo sapiens) (UniProt Q13131); assay: Inhibition of partial length wild type human AMPKalpha1 expressed in bacterial system assessed as enzyme activity at 1 uM relative to control; set-up: scale not given: the % may be the effect or the level left
[2] = molecular target: Serine/threonine-protein kinase Nek6 (Homo sapiens) (UniProt Q9HC98); assay: Inhibition of full length wild type human NEK6 expressed in bacterial system assessed as enzyme activity at 1 uM relative to control; set-up: scale not given: the % may be the effect or the level left
[3] = molecular target: Tyrosine-protein kinase SYK (Homo sapiens) (UniProt P43405); assay: Inhibition of partial length wild type human SYK expressed in bacterial system assessed as enzyme activity at 1 uM relative to control; set-up: scale not given: the % may be the effect or the level left
[4] = molecular target: Interferon-induced, double-stranded RNA-activated protein kinase (Homo sapiens) (UniProt P19525); assay: Inhibition of partial length wild type human PRKR expressed in bacterial system assessed as enzyme activity at 1 uM relative to control; set-up: scale not given: the % may be the effect or the level left
[5] = molecular target: RAC-alpha serine/threonine-protein kinase (Homo sapiens) (UniProt P31749); assay: Inhibition of partial length wild type human AKT1 expressed in bacterial system assessed as enzyme activity at 1 uM relative to control; set-up: scale not given: the % may be the effect or the level left
[6] = molecular target: Epidermal growth factor receptor (Homo sapiens) (UniProt P00533); assay: Inhibition of partial length wild type human EGFR expressed in bacterial system assessed as enzyme activity at 1 uM relative to control; set-up: scale not given: the % may be the effect or the level left
[7] = molecular target: Tyrosine-protein kinase BTK (Homo sapiens) (UniProt Q06187); assay: Inhibition of full length wild type human BTK expressed in mammalian system assessed as enzyme activity at 1 uM relative to control; set-up: scale not given: the % may be the effect or the level left
[8] = molecular target: Serine/threonine-protein kinase B-raf (Homo sapiens, UniProt P15056); assay: Inhibition of wild type B-Raf (unknown origin) assessed as MEK1 phosphorylation using MEK1-Avitag as substrate after 1 hr by HTRF assay
[9] = molecular target: Wee1-like protein kinase (Homo sapiens) (UniProt P30291); assay: Inhibition of partial length wild type human WEE1 expressed in bacterial system assessed as enzyme activity at 1 uM relative to control; set-up: scale not given: the % may be the effect or the level left
[10] = molecular target: Tyrosine-protein kinase ABL1 (Homo sapiens) (UniProt P00519); assay: Inhibition of partial length wild type phosphorylated human ABL1 expressed in mammalian system assessed as enzyme activity at 1 uM relative to control; set-up: scale not given: the % may be the effect or the level left
Tyrosine-protein kinase ABL1 (Homo sapiens), sequence (P00519 whole entry): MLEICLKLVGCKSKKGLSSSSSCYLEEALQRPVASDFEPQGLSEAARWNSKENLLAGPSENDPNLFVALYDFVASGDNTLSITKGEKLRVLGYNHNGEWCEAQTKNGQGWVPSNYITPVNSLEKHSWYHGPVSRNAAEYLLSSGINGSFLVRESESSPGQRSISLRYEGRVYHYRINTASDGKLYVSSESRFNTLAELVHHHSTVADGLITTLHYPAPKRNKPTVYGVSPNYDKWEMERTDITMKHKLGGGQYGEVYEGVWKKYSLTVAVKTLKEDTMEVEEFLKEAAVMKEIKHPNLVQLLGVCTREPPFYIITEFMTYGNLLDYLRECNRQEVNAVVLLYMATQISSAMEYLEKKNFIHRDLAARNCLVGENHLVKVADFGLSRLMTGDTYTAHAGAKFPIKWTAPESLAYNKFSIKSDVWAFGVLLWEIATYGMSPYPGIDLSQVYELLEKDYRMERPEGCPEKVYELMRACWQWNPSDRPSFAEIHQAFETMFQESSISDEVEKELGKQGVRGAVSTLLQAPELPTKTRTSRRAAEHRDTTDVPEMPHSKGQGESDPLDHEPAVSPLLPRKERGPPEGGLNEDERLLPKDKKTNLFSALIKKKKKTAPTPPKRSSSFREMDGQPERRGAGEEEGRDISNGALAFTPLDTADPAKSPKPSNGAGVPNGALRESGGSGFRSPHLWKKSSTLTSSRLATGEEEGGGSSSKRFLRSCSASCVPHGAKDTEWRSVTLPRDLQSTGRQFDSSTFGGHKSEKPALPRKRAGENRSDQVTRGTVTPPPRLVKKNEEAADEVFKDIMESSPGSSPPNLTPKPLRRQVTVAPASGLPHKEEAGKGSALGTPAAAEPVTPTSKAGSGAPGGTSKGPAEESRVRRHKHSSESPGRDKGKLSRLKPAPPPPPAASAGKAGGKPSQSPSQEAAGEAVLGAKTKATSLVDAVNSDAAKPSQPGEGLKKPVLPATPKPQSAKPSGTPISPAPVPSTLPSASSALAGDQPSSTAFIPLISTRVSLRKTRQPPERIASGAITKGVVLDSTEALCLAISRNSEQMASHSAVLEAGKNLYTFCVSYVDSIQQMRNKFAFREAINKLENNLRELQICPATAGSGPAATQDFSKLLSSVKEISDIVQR

[11] = molecular target: Casein kinase II subunit alpha (Homo sapiens) (UniProt P68400); assay: Inhibition of full length wild type human CSNK2A1 expressed in mammalian system assessed as enzyme activity at 1 uM relative to control; set-up: scale not given: the % may be the effect or the level left
[12] = molecular target: Receptor-type tyrosine-protein kinase FLT3 (Homo sapiens) (UniProt P36888); assay: Inhibition of partial length wild type human FLT3 expressed in bacterial system assessed as enzyme activity at 1 uM relative to control; set-up: scale not given: the % may be the effect or the level left
[13] = molecular target: Tyrosine-protein kinase Lyn (Homo sapiens) (UniProt P07948); assay: Inhibition of partial length wild type human LYN expressed in bacterial system assessed as enzyme activity at 1 uM relative to control; set-up: scale not given: the % may be the effect or the level left
[14] = molecular target: Ribosomal protein S6 kinase alpha-1 (Homo sapiens) (UniProt Q15418); assay: Inhibition of partial length wild type human RSK1(Kin.Dom.1-N-terminal) expressed in bacterial system assessed as enzyme activity at 1 uM relative to control; set-up: scale not given: the % may be the effect or the level left
Ribosomal protein S6 kinase alpha-1 (Homo sapiens), sequence (Q15418 whole entry): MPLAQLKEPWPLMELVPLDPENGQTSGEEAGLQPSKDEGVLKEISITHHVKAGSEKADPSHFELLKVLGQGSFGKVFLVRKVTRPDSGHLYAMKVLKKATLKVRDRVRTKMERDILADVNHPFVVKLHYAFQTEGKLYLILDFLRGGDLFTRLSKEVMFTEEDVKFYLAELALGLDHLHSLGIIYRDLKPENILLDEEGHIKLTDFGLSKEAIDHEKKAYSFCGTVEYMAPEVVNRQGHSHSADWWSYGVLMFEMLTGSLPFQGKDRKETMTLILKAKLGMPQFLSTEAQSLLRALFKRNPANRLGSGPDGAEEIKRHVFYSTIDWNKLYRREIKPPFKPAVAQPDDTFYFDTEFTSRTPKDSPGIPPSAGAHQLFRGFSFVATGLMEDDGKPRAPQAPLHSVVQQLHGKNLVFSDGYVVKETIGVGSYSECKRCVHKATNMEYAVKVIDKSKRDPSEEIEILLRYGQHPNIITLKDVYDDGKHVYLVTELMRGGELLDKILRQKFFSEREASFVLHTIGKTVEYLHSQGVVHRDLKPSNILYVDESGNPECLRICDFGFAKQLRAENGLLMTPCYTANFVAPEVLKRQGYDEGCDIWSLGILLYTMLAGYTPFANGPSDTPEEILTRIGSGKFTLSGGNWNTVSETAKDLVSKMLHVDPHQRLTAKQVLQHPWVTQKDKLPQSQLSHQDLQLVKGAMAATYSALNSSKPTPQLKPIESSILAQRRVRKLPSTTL

[15] = molecular target: Dual specificity tyrosine-phosphorylation-regulated kinase 1B (Homo sapiens) (UniProt Q9Y463); assay: Inhibition of partial length wild type human DYRK1B expressed in bacterial system assessed as enzyme activity at 1 uM relative to control; set-up: scale not given: the % may be the effect or the level left
Dual specificity tyrosine-phosphorylation-regulated kinase 1B (Homo sapiens), sequence (Q9Y463 whole entry, looked up): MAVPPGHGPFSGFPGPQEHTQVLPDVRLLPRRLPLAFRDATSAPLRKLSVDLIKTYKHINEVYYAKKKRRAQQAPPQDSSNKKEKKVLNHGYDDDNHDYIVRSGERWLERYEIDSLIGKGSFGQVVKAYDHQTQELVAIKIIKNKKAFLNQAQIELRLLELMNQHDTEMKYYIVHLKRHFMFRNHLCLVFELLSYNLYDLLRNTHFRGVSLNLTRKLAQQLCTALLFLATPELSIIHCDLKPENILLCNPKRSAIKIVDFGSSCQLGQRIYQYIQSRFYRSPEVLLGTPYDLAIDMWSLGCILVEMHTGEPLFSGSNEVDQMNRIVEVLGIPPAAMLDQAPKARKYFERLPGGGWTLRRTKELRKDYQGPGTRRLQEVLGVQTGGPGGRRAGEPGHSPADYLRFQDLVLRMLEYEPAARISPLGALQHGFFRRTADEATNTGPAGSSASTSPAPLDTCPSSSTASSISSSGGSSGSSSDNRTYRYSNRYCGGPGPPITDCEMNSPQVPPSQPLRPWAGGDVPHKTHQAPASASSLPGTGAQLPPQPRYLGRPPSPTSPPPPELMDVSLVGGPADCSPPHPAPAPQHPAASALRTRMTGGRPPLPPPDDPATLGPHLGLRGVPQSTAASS

[16] = molecular target: Cyclin-dependent kinase 2 (Homo sapiens) (UniProt P24941); assay: Inhibition of full length wild type human CDK2 expressed in bacterial system assessed as enzyme activity at 1 uM relative to control; set-up: scale not given: the % may be the effect or the level left
[17] = molecular target: cGMP-dependent protein kinase 1 (Homo sapiens) (UniProt Q13976); assay: Inhibition of partial length wild type human PRKG1 expressed in bacterial system assessed as enzyme activity at 1 uM relative to control; set-up: scale not given: the % may be the effect or the level left
[18] = molecular target: Serine/threonine-protein kinase pim-1 (Homo sapiens) (UniProt P11309); assay: Inhibition of partial length wild type human PIM1 expressed in bacterial system assessed as enzyme activity at 1 uM relative to control; set-up: scale not given: the % may be the effect or the level left
[19] = molecular target: Serine/threonine-protein kinase 33 (Homo sapiens) (UniProt Q9BYT3); assay: Inhibition of full length wild type human STK33 expressed in bacterial system assessed as enzyme activity at 1 uM relative to control; set-up: scale not given: the % may be the effect or the level left
[20] = molecular target: MAP kinase-activated protein kinase 2 (Homo sapiens) (UniProt P49137); assay: Inhibition of partial length wild type human MAPKAPK2 expressed in bacterial system assessed as enzyme activity at 1 uM relative to control; set-up: scale not given: the % may be the effect or the level left
[21] = molecular target: Mitogen-activated protein kinase kinase kinase kinase 1 (Homo sapiens) (UniProt Q92918); assay: Inhibition of full length wild type human HPK1 expressed in bacterial system assessed as enzyme activity at 1 uM relative to control; set-up: scale not given: the % may be the effect or the level left
[22] = molecular target: TGF-beta receptor type-1 (Homo sapiens) (UniProt P36897); assay: Inhibition of partial length wild type human TGFBR1 expressed in bacterial system assessed as enzyme activity at 1 uM relative to control; set-up: scale not given: the % may be the effect or the level left
[23] = molecular target: Serine/threonine-protein kinase TAO2 (Homo sapiens) (UniProt Q9UL54); assay: Inhibition of partial length wild type human TAOK2 expressed in mammalian system assessed as enzyme activity at 1 uM relative to control; set-up: scale not given: the % may be the effect or the level left
Serine/threonine-protein kinase TAO2 (Homo sapiens), sequence (Q9UL54 whole entry): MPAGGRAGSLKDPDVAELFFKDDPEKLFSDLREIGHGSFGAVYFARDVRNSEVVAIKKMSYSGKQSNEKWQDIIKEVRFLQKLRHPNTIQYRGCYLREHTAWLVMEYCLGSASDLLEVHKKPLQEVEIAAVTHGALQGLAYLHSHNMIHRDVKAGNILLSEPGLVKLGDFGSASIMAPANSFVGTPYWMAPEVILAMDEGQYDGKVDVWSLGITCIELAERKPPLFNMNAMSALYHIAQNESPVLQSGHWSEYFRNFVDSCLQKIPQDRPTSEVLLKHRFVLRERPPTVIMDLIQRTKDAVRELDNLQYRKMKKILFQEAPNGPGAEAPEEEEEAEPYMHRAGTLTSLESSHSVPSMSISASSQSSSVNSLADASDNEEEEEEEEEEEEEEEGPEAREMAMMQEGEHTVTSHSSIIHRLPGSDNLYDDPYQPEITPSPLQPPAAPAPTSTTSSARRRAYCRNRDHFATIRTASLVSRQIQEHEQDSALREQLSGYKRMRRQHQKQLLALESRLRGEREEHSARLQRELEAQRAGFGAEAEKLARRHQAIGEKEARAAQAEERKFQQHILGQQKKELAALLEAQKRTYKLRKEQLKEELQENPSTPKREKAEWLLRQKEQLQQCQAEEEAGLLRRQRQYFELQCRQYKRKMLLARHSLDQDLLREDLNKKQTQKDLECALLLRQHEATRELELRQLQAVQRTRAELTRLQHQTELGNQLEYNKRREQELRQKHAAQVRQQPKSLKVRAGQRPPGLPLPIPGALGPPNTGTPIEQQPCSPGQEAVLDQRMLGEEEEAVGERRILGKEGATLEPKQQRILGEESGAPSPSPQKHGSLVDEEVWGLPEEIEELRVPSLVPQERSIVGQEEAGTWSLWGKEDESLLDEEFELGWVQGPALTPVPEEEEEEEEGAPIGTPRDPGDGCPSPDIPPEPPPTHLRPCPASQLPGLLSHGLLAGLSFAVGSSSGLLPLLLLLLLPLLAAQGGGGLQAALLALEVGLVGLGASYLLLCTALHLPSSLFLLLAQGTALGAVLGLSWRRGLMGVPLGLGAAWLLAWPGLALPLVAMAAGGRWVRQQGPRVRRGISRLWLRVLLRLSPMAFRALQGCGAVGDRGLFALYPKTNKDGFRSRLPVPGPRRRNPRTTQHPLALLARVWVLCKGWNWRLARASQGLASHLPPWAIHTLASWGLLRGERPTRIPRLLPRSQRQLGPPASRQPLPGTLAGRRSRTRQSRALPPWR

[24] = molecular target: Serine/threonine-protein kinase 3 (Homo sapiens) (UniProt Q13188); assay: Inhibition of partial length wild type human MST2 expressed in bacterial system assessed as enzyme activity at 1 uM relative to control; set-up: scale not given: the % may be the effect or the level left
[25] = molecular target: Hepatocyte growth factor receptor (Homo sapiens) (UniProt P08581); assay: Inhibition of partial length wild type human MET expressed in bacterial system assessed as enzyme activity at 1 uM relative to control; set-up: scale not given: the % may be the effect or the level left
[26] = molecular target: Angiopoietin-1 receptor (Homo sapiens) (UniProt Q02763); assay: Inhibition of partial length wild type human TIE2 expressed in bacterial system assessed as enzyme activity at 1 uM relative to control; set-up: scale not given: the % may be the effect or the level left
[27] = molecular target: Mitogen-activated protein kinase 12 (Homo sapiens) (UniProt P53778); assay: Inhibition of full length wild type human p38gamma expressed in bacterial system assessed as enzyme activity at 1 uM relative to control; set-up: scale not given: the % may be the effect or the level left
[28] = molecular target: Mitogen-activated protein kinase kinase kinase kinase 4 (Homo sapiens) (UniProt O95819); assay: Inhibition of partial length wild type human MAP4K4 expressed in bacterial system assessed as enzyme activity at 1 uM relative to control; set-up: scale not given: the % may be the effect or the level left
Mitogen-activated protein kinase kinase kinase kinase 4 (Homo sapiens), sequence (O95819 2-1239 limits assumed): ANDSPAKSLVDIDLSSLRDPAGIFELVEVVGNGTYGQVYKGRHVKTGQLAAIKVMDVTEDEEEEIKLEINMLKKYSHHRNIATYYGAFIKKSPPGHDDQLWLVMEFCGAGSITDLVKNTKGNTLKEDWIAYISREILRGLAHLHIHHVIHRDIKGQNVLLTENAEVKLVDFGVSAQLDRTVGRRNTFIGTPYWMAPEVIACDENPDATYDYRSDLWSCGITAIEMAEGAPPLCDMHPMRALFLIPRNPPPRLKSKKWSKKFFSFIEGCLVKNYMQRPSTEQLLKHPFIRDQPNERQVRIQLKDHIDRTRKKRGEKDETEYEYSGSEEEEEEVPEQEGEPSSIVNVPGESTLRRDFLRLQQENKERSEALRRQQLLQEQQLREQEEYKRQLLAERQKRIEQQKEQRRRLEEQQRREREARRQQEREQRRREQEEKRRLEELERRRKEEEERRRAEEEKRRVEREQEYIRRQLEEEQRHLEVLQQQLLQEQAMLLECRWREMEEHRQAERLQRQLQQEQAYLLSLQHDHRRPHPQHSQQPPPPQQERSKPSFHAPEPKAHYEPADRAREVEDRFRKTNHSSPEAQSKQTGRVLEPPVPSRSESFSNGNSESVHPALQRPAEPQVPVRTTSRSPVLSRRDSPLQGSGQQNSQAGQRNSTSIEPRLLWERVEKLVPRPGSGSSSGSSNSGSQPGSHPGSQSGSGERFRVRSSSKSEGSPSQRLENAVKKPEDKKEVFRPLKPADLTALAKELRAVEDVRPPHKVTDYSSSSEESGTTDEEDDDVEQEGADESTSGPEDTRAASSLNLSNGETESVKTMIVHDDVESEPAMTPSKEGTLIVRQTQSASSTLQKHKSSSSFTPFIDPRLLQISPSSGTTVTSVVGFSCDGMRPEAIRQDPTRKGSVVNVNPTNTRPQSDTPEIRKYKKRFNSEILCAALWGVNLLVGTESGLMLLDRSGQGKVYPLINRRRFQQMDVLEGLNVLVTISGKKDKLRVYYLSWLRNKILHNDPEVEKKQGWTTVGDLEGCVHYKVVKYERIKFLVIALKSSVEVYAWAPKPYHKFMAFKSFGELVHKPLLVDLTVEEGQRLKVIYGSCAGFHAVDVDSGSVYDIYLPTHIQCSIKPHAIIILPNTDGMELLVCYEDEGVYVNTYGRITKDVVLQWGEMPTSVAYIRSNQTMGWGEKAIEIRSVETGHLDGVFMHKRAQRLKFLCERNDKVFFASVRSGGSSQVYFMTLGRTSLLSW

[29] = molecular target: Casein kinase I isoform gamma-2 (Homo sapiens) (UniProt P78368); assay: Inhibition of full length wild type human CSNK1G2 expressed in bacterial system assessed as enzyme activity at 1 uM relative to control; set-up: scale not given: the % may be the effect or the level left
[30] = molecular target: Serine/threonine-protein kinase PLK1 (Homo sapiens) (UniProt P53350); assay: Inhibition of partial length wild type human PLK1 expressed in mammalian system assessed as enzyme activity at 1 uM relative to control; set-up: scale not given: the % may be the effect or the level left
[31] = molecular target: Dual specificity tyrosine-phosphorylation-regulated kinase 1A (Homo sapiens) (UniProt Q13627); assay: Inhibition of partial length wild type human DYRK1A expressed in mammalian system assessed as enzyme activity at 1 uM relative to control; set-up: scale not given: the % may be the effect or the level left
[32] = molecular target: Tyrosine-protein kinase JAK2 (Homo sapiens) (UniProt O60674); assay: Inhibition of partial length wild type human JAK2 (catalytic JH1 domain) expressed in mammalian system assessed as enzyme activity at 1 uM relative to control; set-up: scale not given: the % may be the effect or the level left

Activity [1]: 92%
Activity [2]: 79%
Activity [3]: 76%
Activity [4]: 83%
Activity [5]: 87%
Activity [6]: 66%
Activity [7]: 95%
IC50 [8]: 90 nM
Activity [9]: 90%
Activity [10]: 100%
Activity [11]: 64%
Activity [12]: 71%
Activity [13]: 93%
Activity [14]: 94%
Activity [15]: 99%
Activity [16]: 99%
Activity [17]: 92%
Activity [18]: 83%
Activity [19]: 100%
Activity [20]: 83%
Activity [21]: 87%
Activity [22]: 65%
Activity [23]: 94%
Activity [24]: 91%
Activity [25]: 88%
Activity [26]: 63%
Activity [27]: 100%
Activity [28]: 98%
Activity [29]: 60%
Activity [30]: 100%
Activity [31]: 96%
Activity [32]: 100%
SMILES: CN(C)S(=O)(=O)Nc1ccc(F)c(Nc2ncccc2-c2ncnc3[nH]cnc23)c1F
